Experimental findings from patent US20220153751A1, “BIFUNCTIONAL COMPOUNDS” (BioTheryX, Inc., priority 2018, published 2022) are described below.

What all share (type): cell-based
One test deals with IL-6. Description: IL-6 inhibition assay, LPS-induced PBMCs / CD14+ monocytes (Meso Scale). To be noted: 1 h pretreatment, 100 ng/mL LPS 18-24 h. An outline of the steps:
(§1)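 Thawed human PBMCs or CD14+ mobilized peripheral blood monocytes, 200,000 cells/well in RPMI-1640/10% FBS, pretreated with compound or DMSO 1 h, then stimulated with 100 ng/mL LPS for 18-24 h. Supernatant cytokine measured by Meso Scale; % inhibition binned A–D (<50%, 50–70%, 70–90%, ≥90%), fold-change binned A–D (≤0.1, ≤0.5, ≤1, >1).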

The next test relates to IL-1β. Nature of the test: IL-1β inhibition assay, LPS-induced PBMCs / CD14+ monocytes (Meso Scale). The conditions noted are these: 1 h pretreatment, 100 ng/mL LPS 18-24 h. An outline of the steps:
as §1

Another test has as its system MOLM-13 cells. Nature of the test: MOLM-13 cell viability assay (CellTiter-Glo). The conditions noted are these: Homo sapiens, MOLM-13, 72 h, 3 days, read-out: MOLM-13 Cell Viability % DMSO at 1 μM. An outline of the steps: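 MOLM-13 cells at 2500 cells/well were exposed to compound for 3 days at 37 °C. Viability was read by CellTiter-Glo luminescence and expressed as % of DMSO control, binned A (<50%), B (50–<70%), C (70–<90%) or D (≥90%).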

The target in the next test is T1, CK1α (Homo sapiens, UniProt P48729+Q96SW2).
T1 construct: Whole cell extracts were prepared using RIPA buffer; endogenous in cells; host or cells: MV-4-11
Description: CK1α degradation assay (Western blot, MV-4-11 cells). The conditions noted are these: MV4-11, 6-8 h. An outline of the steps: (§2)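 Immunoblot-based % degradation, scored A–D in 25% steps (D ≥75%). Compound exposure was 6-8 h.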

Another test deals with TNF-α. Nature of the test: TNF-α inhibition assay, LPS-induced PBMCs / CD14+ monocytes (Meso Scale). The conditions noted are these: 1 h pretreatment, 100 ng/mL LPS 18-24 h. An outline of the steps: as §1
Another test has as its system IL-2. Nature of the test: IL-2 fold-change assay, anti-CD3 stimulated PBMCs (Mesoscale). The conditions noted are these: PBMC, PBMCs on anti-human CD3, 24 h, fold difference from the DMSO control. As for the experimental part:
For the IL-2 analysis, 96 well plates were precoated with 1 μg/mL anti-human CD3 antibody (OK3, eBioscience Inc., San Diego, Calif.). After washing with PBS, the indicated compound was added (50 μL/well) followed by PBMCs diluted at 3-4 million cells/mL (150 μL/well). Plates were incubated for 24 h and the supernatants collected for Mesoscale IL-2 analysis. IL-2 activity is measured as fold difference from the DMSO control.
In Table 6, the % inhibition values are reported as “A”, “B”, “C”, or “D”. “A” represents a % inhibition value of less than 50% (value <50%). “B” represents a % inhibition value of equal to or more than 50% and less than 70% (50%≤value<70%). “C” represents a % inhibition value of equal to or more than 70% and less than 90% (70%≤value<90%). “D” represents a % inhibition value of equal or more than 90% (value ≥90%). In Table 7, the fold-change values are reported as “A”, “B”, “C”, or “D”. “A” represents a fold-change value of equal to or less than 0.1 (value ≤0.1). “B” represents a fold-change value of more than 0.1 and equal to or less than 0.5 (0.1<value≤0.5). “C” represents a fold-change value of more than 0.5 and equal to or less than 1 (0.5<value≤1). “D” represents a fold-change value of more than 1 (value >1).

A further test deals with T2, GSPT1 (Homo sapiens, UniProt P15170+Q96SW2).
T2 construct: Whole cell extracts were prepared using RIPA buffer; endogenous in cells; host or cells: MV-4-11
Nature of the test: GSPT1 degradation assay (Western blot, MV-4-11 cells). To be noted: MV4-11, 6-8 h. An outline of the steps:
as §2

For another test, the target named is T3, IKAROS (Homo sapiens, UniProt Q13422+Q96SW2).
T3 construct: endogenous in cells; host or cells: MV-4-11
Nature of the test: IKAROS degradation assay (Western blot, MV-4-11 cells). The conditions noted are these: MV4-11, 6-8 h. An outline of the steps:
as §2

T1 sequence (P48729 whole entry): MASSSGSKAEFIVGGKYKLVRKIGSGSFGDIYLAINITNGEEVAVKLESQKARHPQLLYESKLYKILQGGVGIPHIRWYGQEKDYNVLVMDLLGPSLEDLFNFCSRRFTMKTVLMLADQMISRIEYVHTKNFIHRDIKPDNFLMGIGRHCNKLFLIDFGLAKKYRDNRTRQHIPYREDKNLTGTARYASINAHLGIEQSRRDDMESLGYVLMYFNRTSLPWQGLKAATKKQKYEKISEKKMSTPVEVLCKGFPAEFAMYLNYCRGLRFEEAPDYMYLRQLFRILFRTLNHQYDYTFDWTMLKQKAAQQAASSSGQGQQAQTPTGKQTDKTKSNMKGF
T1 sequence (Q96SW2 whole entry): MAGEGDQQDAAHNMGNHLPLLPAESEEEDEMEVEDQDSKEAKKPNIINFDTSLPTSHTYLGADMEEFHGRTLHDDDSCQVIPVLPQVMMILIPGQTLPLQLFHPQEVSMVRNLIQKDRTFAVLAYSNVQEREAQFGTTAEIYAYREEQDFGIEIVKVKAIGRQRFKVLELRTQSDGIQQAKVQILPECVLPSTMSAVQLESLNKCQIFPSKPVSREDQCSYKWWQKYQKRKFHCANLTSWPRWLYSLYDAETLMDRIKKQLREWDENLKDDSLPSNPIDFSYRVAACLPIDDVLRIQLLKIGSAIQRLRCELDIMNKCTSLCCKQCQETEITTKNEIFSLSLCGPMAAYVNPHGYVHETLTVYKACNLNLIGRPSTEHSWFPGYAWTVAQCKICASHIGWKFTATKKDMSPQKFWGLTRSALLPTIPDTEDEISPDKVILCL
T1 sequence (Q16531 whole entry partner): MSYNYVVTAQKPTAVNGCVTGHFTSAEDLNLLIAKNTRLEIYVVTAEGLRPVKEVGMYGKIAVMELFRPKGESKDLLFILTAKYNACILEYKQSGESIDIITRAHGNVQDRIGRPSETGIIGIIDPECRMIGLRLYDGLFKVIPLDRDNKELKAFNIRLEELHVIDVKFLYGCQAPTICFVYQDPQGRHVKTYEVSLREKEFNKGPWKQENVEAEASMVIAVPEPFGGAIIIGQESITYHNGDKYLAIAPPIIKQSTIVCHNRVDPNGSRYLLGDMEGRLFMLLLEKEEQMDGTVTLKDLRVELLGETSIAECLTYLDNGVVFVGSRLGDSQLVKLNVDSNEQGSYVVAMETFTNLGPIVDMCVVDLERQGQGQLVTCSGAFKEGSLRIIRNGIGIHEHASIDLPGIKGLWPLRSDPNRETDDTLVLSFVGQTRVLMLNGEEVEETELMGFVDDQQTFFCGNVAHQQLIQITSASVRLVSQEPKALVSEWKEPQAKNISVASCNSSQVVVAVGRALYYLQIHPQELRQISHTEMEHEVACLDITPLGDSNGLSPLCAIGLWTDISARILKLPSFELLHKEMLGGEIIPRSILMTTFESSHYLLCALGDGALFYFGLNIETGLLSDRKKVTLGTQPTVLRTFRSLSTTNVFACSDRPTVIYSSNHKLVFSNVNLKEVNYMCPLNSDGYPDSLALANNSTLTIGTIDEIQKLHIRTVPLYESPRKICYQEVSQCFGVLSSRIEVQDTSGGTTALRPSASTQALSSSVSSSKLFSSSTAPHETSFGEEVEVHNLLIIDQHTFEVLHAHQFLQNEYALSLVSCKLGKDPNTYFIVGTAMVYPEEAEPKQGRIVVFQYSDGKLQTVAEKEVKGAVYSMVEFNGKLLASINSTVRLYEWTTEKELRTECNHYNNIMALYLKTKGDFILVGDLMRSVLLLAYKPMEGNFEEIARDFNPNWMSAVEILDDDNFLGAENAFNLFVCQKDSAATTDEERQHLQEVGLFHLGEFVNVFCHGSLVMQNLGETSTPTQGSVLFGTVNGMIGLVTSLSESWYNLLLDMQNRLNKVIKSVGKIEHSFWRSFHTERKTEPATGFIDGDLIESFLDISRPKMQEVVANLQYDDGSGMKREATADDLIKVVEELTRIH
T3 sequence (Q13422 whole entry): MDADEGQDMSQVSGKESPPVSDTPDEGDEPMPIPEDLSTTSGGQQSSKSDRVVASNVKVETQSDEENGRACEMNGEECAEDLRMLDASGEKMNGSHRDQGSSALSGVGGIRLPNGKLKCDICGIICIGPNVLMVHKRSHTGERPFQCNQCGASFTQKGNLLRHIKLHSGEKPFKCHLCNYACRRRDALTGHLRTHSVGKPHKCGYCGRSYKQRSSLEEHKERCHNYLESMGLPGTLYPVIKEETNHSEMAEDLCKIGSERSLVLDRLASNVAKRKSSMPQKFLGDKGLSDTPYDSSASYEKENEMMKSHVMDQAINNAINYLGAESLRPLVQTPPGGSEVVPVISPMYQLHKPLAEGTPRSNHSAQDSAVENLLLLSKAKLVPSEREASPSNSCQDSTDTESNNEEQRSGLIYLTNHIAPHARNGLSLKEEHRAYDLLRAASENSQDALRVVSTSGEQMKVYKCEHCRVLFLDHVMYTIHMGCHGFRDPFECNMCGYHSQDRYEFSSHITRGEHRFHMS
T3 sequence (Q96SW2 whole entry): as the sequence (Q96SW2 whole entry) above
T3 sequence (Q16531 whole entry partner): as the sequence (Q16531 whole entry partner) above
T2 sequence (P15170 whole entry): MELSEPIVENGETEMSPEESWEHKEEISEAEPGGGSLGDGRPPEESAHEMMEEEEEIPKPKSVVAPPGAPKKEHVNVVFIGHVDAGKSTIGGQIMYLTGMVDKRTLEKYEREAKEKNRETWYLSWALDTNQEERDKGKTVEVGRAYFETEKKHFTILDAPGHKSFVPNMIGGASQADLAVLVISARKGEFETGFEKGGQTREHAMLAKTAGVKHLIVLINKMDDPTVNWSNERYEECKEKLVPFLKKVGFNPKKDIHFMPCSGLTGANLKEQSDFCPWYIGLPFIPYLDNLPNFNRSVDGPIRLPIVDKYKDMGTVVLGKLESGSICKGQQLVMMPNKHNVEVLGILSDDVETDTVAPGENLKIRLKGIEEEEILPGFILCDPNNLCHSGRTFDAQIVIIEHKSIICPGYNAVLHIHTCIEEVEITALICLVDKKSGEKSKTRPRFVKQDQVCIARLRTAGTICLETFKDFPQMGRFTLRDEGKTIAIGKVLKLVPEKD
T2 sequence (Q96SW2 whole entry): as the sequence (Q96SW2 whole entry) above
T2 sequence (Q16531 whole entry partner): as the sequence (Q16531 whole entry partner) above

For `Cn1ncc(-c2nc(N[C@H]3CC[C@H](NC(=O)CCCCCCNCC(=O)Nc4cccc5c4CN([C@H]4CCCC(=O)NC4=O)C5=O)CC3)ncc2Cl)c1CC1CC1` [Compound 9, N-((1r,4r)-4-((5-chloro-4-(5-(cyclopropylmethyl)-1-methyl-1H-pyrazol-4-yl)pyrimidin-2-yl)amino)cyclohexyl)-7-((2-((2-((S)-2,7-dioxoazepan-3-yl)-1-oxoisoindolin-4-yl)amino)-2-oxoethyl)amino)heptanamide], the inhibition at 1 µM in the test on IL-6 was less than 50%; in the test with IL-1β it was 50 to 70%; in the test with TNF-α, 50 to 70%. In addition, the viability at 1 µM in the test with MOLM-13 cells is less than 50%. The results for the Dmax at 1 µM on CK1α and on GSPT1 were less than 25% and 50 to 75%, respectively. Moreover, the fold induction at 1 µM with IL-2 fell in the range of 0.5 to 1.

As for `CC(C)(C)c1cnc(CSc2cnc(NC(=O)C3CCN(CC(=O)NCCCCCCCNC(=O)NCc4cc5c(s4)C(=O)N(C4CCC(=O)NC4=O)C5)CC3)s2)o1` (stereo not drawn) [Compound 18, N-(5-(((5-(tert-butyl)oxazol-2-yl)methyl)thio)thiazol-2-yl)-1-(2-((7-(3-((5-(2,6-dioxopiperidin-3-yl)-6-oxo-5,6-dihydro-4H-thieno[2,3-c]pyrrol-2-yl)methyl)ureido)heptyl)amino)-2-oxoethyl)piperidine-4-carboxamide], the inhibition at 1 µM in the test on IL-6 was more than 90%; in the test on IL-1β, more than 90%; with TNF-α, 70 to 90%. The viability at 1 µM in the test on MOLM-13 cells is more than 90%. Besides, the Dmax at 1 µM on CK1α was 50 to 75%; at IKAROS, 25 to 50%; on GSPT1, 50 to 75%. In the test with IL-2, the fold induction at 1 µM is not above 0.1.

On to `Cn1ncc(-c2nc(N[C@H]3CC[C@H](NCC(=O)NCCCCNCC(=O)NCc4cc5c(s4)C(=O)N(C4CCC(=O)NC4=O)C5=O)CC3)ncc2F)c1CC1CC1` (stereo partly drawn) [Compound 37, 2-(((1r,4r)-4-((4-(5-(cyclopropylmethyl)-1-methyl-1H-pyrazol-4-yl)-5-fluoropyrimidin-2-yl)amino)cyclohexyl)amino)-N-(4-((2-(((5-(2,6-dioxopiperidin-3-yl)-4,6-dioxo-5,6-dihydro-4H-thieno[2,3-c]pyrrol-2-yl)methyl)amino)-2-oxoethyl)amino)butyl)acetamide], for which the inhibition at 1 µM in the test with IL-6 was more than 90%; in the test with IL-1β, more than 90%; in the test on TNF-α, 70 to 90%. In addition, in the test on MOLM-13 cells, the viability at 1 µM lay within 50 to 70%. The Dmax at 1 µM on CK1α lay in the range of 25 to 50%; at IKAROS it was 25 to 50%; at GSPT1, 50 to 75%. In addition, the fold induction at 1 µM with IL-2 fell in the range of 0.1 to 0.5.

For `Cn1ncc(-c2nc(N[C@H]3CC[C@H](NCC(=O)NCCCCNCC(=O)NCc4scc5c4C(=O)N(C4CCC(=O)NC4=O)C5=O)CC3)ncc2Cl)c1CC1CC1` (stereo partly drawn) [Compound 51, 2-(((1r,4r)-4-((5-chloro-4-(5-(cyclopropylmethyl)-1-methyl-1H-pyrazol-4-yl)pyrimidin-2-yl)amino)cyclohexyl)amino)-N-(4-((2-(((5-(2,6-dioxopiperidin-3-yl)-4,6-dioxo-5,6-dihydro-4H-thieno[3,4-c]pyrrol-1-yl)methyl)amino)-2-oxoethyl)amino)butyl)acetamide], the inhibition at 1 µM in the test on IL-6, in the test on IL-1β and in the test on TNF-α was more than 90% each time. Besides, in the test on MOLM-13 cells, the viability at 1 µM was more than 90%. Besides, the Dmax at 1 µM is 25 to 50% on CK1α, 50 to 75% at IKAROS and 25 to 50% on GSPT1. The fold induction at 1 µM with IL-2 was not above 0.1.

As for `Cn1ncc(-c2nc(N[C@H]3CC[C@H](NCC(=O)NCCOCCOCCOCCNc4cccc5c4CN(C4CCC(=O)NC4=O)C5=O)CC3)ncc2Cl)c1CC1CC1` (stereo partly drawn) [Compound 55, 2-(((1r,4r)-4-((5-chloro-4-(5-(cyclopropylmethyl)-1-methyl-1H-pyrazol-4-yl)pyrimidin-2-yl)amino)cyclohexyl)amino)-N-(2-(2-(2-(2-((2-(2,6-dioxopiperidin-3-yl)-1-oxoisoindolin-4-yl)amino)ethoxy)ethoxy)ethoxy)ethyl)acetamide], the inhibition at 1 µM in the test on IL-6, with IL-1β and with TNF-α was more than 90% throughout. Besides, the viability at 1 µM with MOLM-13 cells is more than 90%. Moreover, the Dmax at 1 µM was 25 to 50% at CK1α, not below 75% on IKAROS and 50 to 75% on GSPT1. The fold induction at 1 µM in the test with IL-2 was not above 0.1.

With `Cn1ncc(-c2nc(N[C@H]3CC[C@H](NCC(=O)NCCOCCOCCOCCNc4cccc5c4CN(C4CCC(=O)NC4=O)C5=O)CC3)ncc2F)c1CC1CC1` (stereo partly drawn) [Compound 56, 2-(((1r,4r)-4-((4-(5-(cyclopropylmethyl)-1-methyl-1H-pyrazol-4-yl)-5-fluoropyrimidin-2-yl)amino)cyclohexyl)amino)-N-(2-(2-(2-(2-((2-(2,6-dioxopiperidin-3-yl)-1-oxoisoindolin-4-yl)amino)ethoxy)ethoxy)ethoxy)ethyl)acetamide], the inhibition at 1 µM with IL-6, in the test with IL-1β and in the test on TNF-α was more than 90% throughout. The viability at 1 µM in the test with MOLM-13 cells was more than 90%. For the same compound, the Dmax at 1 µM at CK1α was 25 to 50%; at IKAROS, 50 to 75%. Also, the fold induction at 1 µM with IL-2 was not above 0.1.

In the case of `CC(C)(C)c1cnc(CSc2cnc(NC(=O)C3CCN(CCOCCOCCOCCOCCNCC(=O)NCc4scc5c4CN(C4CCC(=O)NC4=O)C5=O)CC3)s2)o1` (stereo not drawn) [Compound 58, N-(5-(((5-(tert-butyl)oxazol-2-yl)methyl)thio)thiazol-2-yl)-1-(1-(5-(2,6-dioxopiperidin-3-yl)-4-oxo-5,6-dihydro-4H-thieno[3,4-c]pyrrol-1-yl)-3-oxo-8,11,14,17-tetraoxa-2,5-diazanonadecan-19-yl)piperidine-4-carboxamide], the inhibition at 1 µM in the test on IL-6 was 70 to 90%; in the test with IL-1β, more than 90%; in the test on TNF-α it was less than 50%. Further, the viability at 1 µM in the test with MOLM-13 cells was in the range of 50 to 70%. Moreover, the Dmax at 1 µM on CK1α was not below 75%; on IKAROS it was less than 25%. In the test on IL-2, the fold induction at 1 µM was in the range of 0.5 to 1.

Take `Cn1ncc(-c2ncnc(N[C@H]3CC[C@H](NCCCCCCCCNC(=O)NCc4cc5c(s4)C(=O)N(C4CCC(=O)NC4=O)C5)CC3)n2)c1CC1CC1` (stereo partly drawn) [Compound 65, 1-(8-(((1r,4r)-4-((4-(5-(cyclopropylmethyl)-1-methyl-1H-pyrazol-4-yl)-1,3,5-triazin-2-yl)amino)cyclohexyl)amino)octyl)-3-((5-(2,6-dioxopiperidin-3-yl)-6-oxo-5,6-dihydro-4H-thieno[2,3-c]pyrrol-2-yl)methyl)urea]: the inhibition at 1 µM with IL-6, in the test on IL-1β and with TNF-α was less than 50% each time. The viability at 1 µM in the test with MOLM-13 cells is less than 50%. In addition, the Dmax at 1 µM on CK1α was in the range of 50 to 75%; on GSPT1, 25 to 50%. Besides, the fold induction at 1 µM in the test with IL-2 fell in the range of 0.5 to 1.
